Measurements: patent publication US9815796B2 (Merck Sharp & Dohme Corp., priority 2013, dated 2017)

biological target: human PDE2A1 (Homo sapiens (Human), UniProt O00408); test: IMAP FP PDE selectivity panel, human PDE2A1; format: biochemical; conditions: Human PDE2, Lab B; read-out: Human PDE2 Ki (nM) - Lab B
In short: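 GST-tagged human PDE2A1 expressed in insect cells, run at room temperature for 60 min with 50 nM FAM-cAMP containing 1000 nM cGMP, pH 7.2 Tris/MgCl2 buffer. IMAP fluorescence polarization read after binding step.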

Sequence of human PDE2A1 (O00408 other isoform, or with tags, fused parts or gaps): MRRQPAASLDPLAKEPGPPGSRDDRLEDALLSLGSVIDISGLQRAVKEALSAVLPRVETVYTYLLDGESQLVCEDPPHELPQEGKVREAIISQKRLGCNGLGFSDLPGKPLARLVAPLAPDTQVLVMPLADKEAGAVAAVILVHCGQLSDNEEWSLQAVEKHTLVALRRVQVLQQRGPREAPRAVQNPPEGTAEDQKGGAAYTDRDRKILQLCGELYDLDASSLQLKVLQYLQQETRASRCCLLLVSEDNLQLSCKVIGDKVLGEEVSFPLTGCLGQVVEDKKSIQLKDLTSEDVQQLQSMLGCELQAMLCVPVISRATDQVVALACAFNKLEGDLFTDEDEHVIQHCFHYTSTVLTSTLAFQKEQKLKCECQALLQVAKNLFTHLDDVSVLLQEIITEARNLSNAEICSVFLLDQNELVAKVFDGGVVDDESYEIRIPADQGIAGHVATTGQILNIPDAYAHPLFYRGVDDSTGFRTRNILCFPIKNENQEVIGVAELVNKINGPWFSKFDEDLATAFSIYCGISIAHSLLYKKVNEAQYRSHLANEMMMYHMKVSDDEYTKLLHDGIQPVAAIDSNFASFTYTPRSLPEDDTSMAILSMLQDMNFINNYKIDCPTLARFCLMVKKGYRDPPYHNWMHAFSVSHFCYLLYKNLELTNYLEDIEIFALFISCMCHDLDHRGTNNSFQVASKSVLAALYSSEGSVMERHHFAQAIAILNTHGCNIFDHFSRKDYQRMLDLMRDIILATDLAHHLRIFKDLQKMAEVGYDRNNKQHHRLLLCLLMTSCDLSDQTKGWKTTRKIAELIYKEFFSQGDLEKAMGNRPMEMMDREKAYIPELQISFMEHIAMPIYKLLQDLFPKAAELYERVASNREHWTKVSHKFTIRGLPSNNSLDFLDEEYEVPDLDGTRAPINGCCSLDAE

Row | SMILES | Ki
1 | CC(C)c1ccc([C@H](NC(=O)c2cc(=O)[nH]c(-c3ncccn3)n2)C2(C)CC2)cc1 [Example 562, N-{(R)-(1-methylcyclopropyl)[4-(1-methylethyl)phenyl]methyl}-6-oxo-1,6-dihydro-2,2′-bipyrimidine-4-carboxamide] | 4.3 nM
2 | CC1([C@@H](NC(=O)c2cc(=O)[nH]c(-c3ncccn3)n2)c2ccc(S(F)(F)(F)(F)F)cc2)CC1 [Example 564, N-{(R)-(1-methylcyclopropyl)[4-(pentafluoro-λ^6-sulfanyl)phenyl]methyl}-6-oxo-1,6-dihydro-2,2′-bipyrimidine-4-carboxamide] | 6.7 nM
3 | CC(C)(C)[C@@H](NC(=O)c1cc(=O)[nH]c(-c2ncccn2)n1)c1ccc(S(F)(F)(F)(F)F)cc1 [Example 566, N-{(1R)-2,2-dimethyl-1-[4-(pentafluoro-λ^6-sulfanyl)phenyl]propyl}-6-oxo-1,6-dihydro-2,2′-bipyrimidine-4-carboxamide] | 4.3 nM
4 | CC(C)(C)[C@@H](NC(=O)c1cc(=O)[nH]c(-c2ncccn2)n1)c1ccc(C(F)(F)F)c([N+](=O)[O-])c1 [Example 567, N-{(1R)-2,2-dimethyl-1-[3-nitro-4-(trifluoromethyl)phenyl]propyl}-6-oxo-1,6-dihydro-2,2′-bipyrimidine-4-carboxamide] | 49 nM
5 | Cc1cc(C(F)(F)F)ccc1C(C)(C)NC(=O)c1cc(=O)[nH]c(-c2ncccn2)n1 [Example 569, N-{1-methyl-1-[2-methyl-4-(trifluoromethyl)phenyl]ethyl}-6-oxo-1,6-dihydro-2,2′-bipyrimidine-4-carboxamide] | 139 nM
6 | COc1cc(C(F)(F)F)ccc1C(C)(C)NC(=O)c1cc(=O)[nH]c(-c2ncccn2)n1 [Example 572, N-{1-[2-methoxy-4-(trifluoromethyl)phenyl]-1-methylethyl}-6-oxo-1,6-dihydro-2,2′-bipyrimidine-4-carboxamide] | 741 nM
7 | CC(C)(C)c1ccc(C2(NC(=O)c3cc(=O)[nH]c(-c4ncccn4)n3)CC2)cc1 [Example 575, N-[1-(4-tert-butylphenyl)cyclopropyl]-6-oxo-1,6-dihydro-2,2′-bipyrimidine-4-carboxamide] | 65 nM
8 | O=C(N[C@@H](c1ccc(C2CC2)c(F)c1)C1CC1)c1cc(=O)[nH]c(-c2ncccn2)n1 [Example 581, N-[(R)-cyclopropyl(4-cyclopropyl-3-fluorophenyl)methyl]-6-oxo-1,6-dihydro-2,2′-bipyrimidine-4-carboxamide] | 13 nM
9 | CC1([C@@H](NC(=O)c2cc(=O)[nH]c(-c3ncccn3)n2)c2ccc(C(F)(F)F)cc2)CC1 [Example 582, N-{(R)-(1-methylcyclopropyl)[4-(trifluoromethyl)phenyl]methyl}-6-oxo-1,6-dihydro-2,2′-bipyrimidine-4-carboxamide] | 10 nM
10 | CC1([C@@H](NC(=O)c2cc(=O)[nH]c(-c3ncccn3)n2)c2ccc(C(F)(F)F)c(F)c2)CC1 [Example 583, N-[(R)-[3-fluoro-4-(trifluoromethyl)phenyl](1-methylcyclopropyl)methyl]-6-oxo-1,6-dihydro-2,2′-bipyrimidine-4-carboxamide] | 8 nM
11 | CC1([C@@H](NC(=O)c2cc(=O)[nH]c(-c3ncccn3)n2)c2ccc(OC(F)F)cc2)CC1 [Example 584, N-[(R)-[4-(difluoromethoxy)phenyl](1-methylcyclopropyl)methyl]-6-oxo-1,6-dihydro-2,2′-bipyrimidine-4-carboxamide] | 36 nM

Results, then the compound that gave them:

Row | Ki | SMILES
12 | 27 nM | CC(C)(C)c1ccc([C@H](NC(=O)c2cc(=O)[nH]c(-c3ncccn3)n2)C2(C)CC2)cc1 [Example 563, N-[(R)-(4-tert-butylphenyl)(1-methylcyclopropyl)methyl]-6-oxo-1,6-dihydro-2,2′-bipyrimidine-4-carboxamide]
13 | 7 nM | CC(C)(C)[C@@H](NC(=O)c1cc(=O)[nH]c(-c2ncccn2)n1)c1ccc(C(F)(F)F)cc1F [Example 565, N-{(1R)-1-[2-fluoro-4-(trifluoromethyl)phenyl]-2,2-dimethylpropyl}-6-oxo-1,6-dihydro-2,2′-bipyrimidine-4-carboxamide]
14 | 96 nM | CC(C)(NC(=O)c1cc(=O)[nH]c(-c2ncccn2)n1)c1ccc(C(F)(F)F)cc1Cl [Example 568, N-{1-[2-chloro-4-(trifluoromethyl)phenyl]-1-methylethyl}-6-oxo-1,6-dihydro-2,2′-bipyrimidine-4-carboxamide]
15 | 21 nM | O=C(NC1(c2ccc(S(F)(F)(F)(F)F)cc2)CC1)c1cc(=O)[nH]c(-c2ncccn2)n1 [Example 570, 6-oxo-N-{1-[4-(pentafluoro-λ^6-sulfanyl)phenyl]cyclopropyl}-1,6-dihydro-2,2′-bipyrimidine-4-carboxamide]
16 | 71 nM | O=C(NC1(c2ccc3c(c2)OC(F)(F)O3)CC1)c1cc(=O)[nH]c(-c2ncccn2)n1 [Example 571, N-[1-(2,2-difluoro-1,3-benzodioxol-5-yl)cyclopropyl]-6-oxo-1,6-dihydro-2,2′-bipyrimidine-4-carboxamide]
17 | 88 nM | CC(C)(NC(=O)c1cc(=O)[nH]c(-c2ncccn2)n1)c1ccc(C(F)(F)F)cc1F [Example 573, N-{1-[2-fluoro-4-(trifluoromethyl)phenyl]-1-methylethyl}-6-oxo-1,6-dihydro-2,2′-bipyrimidine-4-carboxamide]
18 | 831 nM | CC(C)(NC(=O)c1cc(=O)[nH]c(-c2ncccn2)n1)c1ccc(OC(F)(F)F)cc1F [Example 574, N-{1-[2-fluoro-4-(trifluoromethoxy)phenyl]-1-methylethyl}-6-oxo-1,6-dihydro-2,2′-bipyrimidine-4-carboxamide]
19 | 32 nM | CC(C)c1ccc(C2(NC(=O)c3cc(=O)[nH]c(-c4ncccn4)n3)CC2)cc1 [Example 576, N-{1-[4-(1-methylethyl)phenyl]cyclopropyl}-6-oxo-1,6-dihydro-2,2′-bipyrimidine-4-carboxamide]
20 | 287 nM | CC(C)(NC(=O)c1cc(=O)[nH]c(-c2ncccn2)n1)c1ccc(SC(F)(F)F)cc1 [Example 577, N-(1-methyl-1-{4-[(trifluoromethyl)sulfanyl]phenyl}ethyl)-6-oxo-1,6-dihydro-2,2′-bipyrimidine-4-carboxamide]
21 | 104 nM | O=C(NC1(c2ccc(CC(F)(F)F)cc2)CC1)c1cc(=O)[nH]c(-c2ncccn2)n1 [Example 578, 6-oxo-N-{1-[4-(2,2,2-trifluoroethyl)phenyl]cyclopropyl}-1,6-dihydro-2,2′-bipyrimidine-4-carboxamide]
22 | 37 nM | O=C(NC1(c2ccc(C(F)(F)F)cc2F)CC1)c1cc(=O)[nH]c(-c2ncccn2)n1 [Example 579, N-{1-[2-fluoro-4-(trifluoromethyl)phenyl]cyclopropyl}-6-oxo-1,6-dihydro-2,2′-bipyrimidine-4-carboxamide]
23 | 38 nM | CC(C)[C@@H](NC(=O)c1cc(=O)[nH]c(-c2ncccn2)n1)c1ccc(OC(F)(F)F)c(Br)c1 [Example 580, N-{(1R)-1-[3-bromo-4-(trifluoromethoxy)phenyl]-2-methylpropyl}-6-oxo-1,6-dihydro-2,2′-bipyrimidine-4-carboxamide]
24 | 39 nM | CC1([C@@H](NC(=O)c2cc(=O)[nH]c(-c3ncccn3)n2)c2ccc3c(c2)OC(F)(F)O3)CC1 [Example 585, N-[(R)-(2,2-difluoro-1,3-benzodioxol-5-yl)(1-methylcyclopropyl)methyl]-6-oxo-1,6-dihydro-2,2′-bipyrimidine-4-carboxamide]
